Measurements: US20160340286A1, “CLOSTRUBINS” (LEIBNIZ-INSTITUT FÜR NATURSTOFF-FORSCHUNG UND …, priority 2014, published 2016)
In brackets after ≈: the same amount, converted by molar mass. Read-outs that look alike come from different tables or passages of the source.

How the values were obtained:
Assay type in all cases: cell-based
[1] = test system: vancomycin-resistant enterococci (VRE); test: standardized antibiotic assay, MIC, VRE; conditions: Enterococcus
Method: (§1) The activity and more specifically the bioactivity of the compounds according to the present invention can be assessed using appropriate assays known to those skilled in the art, e.g. in vitro or in vivo assays. For instance, the antimicrobial activity may be determined using a standardized antibiotic assay^[1], and the antiproliferative and/or cytotoxic activity may be determined via a standardized assay as described in reference.
(§2) The antibiotic activity of clostrubin A was tested using a standardized antibiotic assay^[1]. […]. A similar antimicrobial activity as against MRSA was observed against Mycobacterium smegmatis (M smegmatis), Mycobacterium aurum (M aurum), Mycobacterium vaccae (M vaccae) and Mycobacterium fortuitum (M fortuitum)—see, Table 3.

Mycobacterium aurum = test: anti-mycobacterial activity, MIC; conditions: Mycolicibacterium aurum
Method: as §1, §2

Mycobacterium smegmatis = test: anti-mycobacterial activity, MIC; conditions: Mycolicibacterium smegmatis
Method: as §1, §2

Mycobacterium fortuitum = test: anti-mycobacterial activity, MIC; conditions: Mycolicibacterium fortuitum
Method: as §1, §2

Mycobacterium vaccae = test: anti-mycobacterial activity, MIC; conditions: Mycolicibacterium vaccae
Method: as §1, §2

Escherichia coli = test: standardized antibiotic assay, MIC, Ec; conditions: for MIC: Escherichia coli (Gram-negative)
Method: as §1, §2

[2] = test system: methicillin-resistant Staphylococcus aureus (MRSA); test: standardized antibiotic assay, MIC, MRSA
Method: as §1, §2

Bs = test: standardized antibiotic assay, MIC, Bs
Method: as §1, §2

[3] = test system: Clavibacter michiganensis ssp. sepedonicus; test: activity against potato pathogens, MIC; conditions: read-out: MIC Clavibacter michiganensis ssp. sepedonicus
Bacillus pumilus = test: microbe, parasite or virus in culture; conditions: potato soft rot pathogen
Method: (§3) The antimicrobial activity of clostrubin A (1) and clostrubin B (2) against the serious potato pathogens Bacillus pumilus (causing potato soft rot), Clavibacter michiganensis ssp. sepedonicus (causing potato ring rot), and Streptomyces scabies (causing potato scab) was tested.

Streptomyces scabies = test: microbe, parasite or virus in culture; conditions: Streptomyces scabiei; potato scab pathogen
Method: as §3

HUVEC = test: antiproliferative effect, standardized assay
From the text: as §1
(§4) Antiproliferative and cytotoxic activity of clostrubin A was tested in a standardized assay^[2].

K-562 = test: antiproliferative effect, standardized assay; conditions: Homo sapiens, K562
From the text: as §1, §4

HeLa = test: cytotoxicity, standardized assay; conditions: summary of Table 4 (HeLa)
From the text: as §1, §4

[4] = cytotoxicity, standardized assay; conditions: human, HeLa cells
From the text: as §1, §4

O=C(O)c1cn(C2CC2)c2cc(N3CCNCC3)c(F)cc2c1=O [Cip, ciprofloxacin, reference compound]
MIC ([1]; read-out: MIC VRE): 2.3 µM | MIC (Mycobacterium aurum): 0.3 µM (≈ 0.0994 µg/mL) | MIC (Mycobacterium smegmatis): 4.71 µM (≈ 1.56 µg/mL) | MIC (Mycobacterium fortuitum): 0.6 µM (≈ 0.199 µg/mL) | MIC (Mycobacterium vaccae): 1.2 µM (≈ 0.398 µg/mL) | MIC (Escherichia coli): 0.01 µM (≈ 0.00331 µg/mL) | MIC ([2]; read-out: MIC MRSA): 37 µM | MIC (Bs): 0.08 µM (≈ 0.0265 µg/mL)

CC(=O)c1ccc2c(c1O)c(O)c1c3c(c(O)cc(C)c32)C(=O)c2c(O)cc(C)cc2-1 [Compound 1, clostrubin A]
MIC [3]: 0.0947 µM (≈ 0.0392 µg/mL) | MIC (Bacillus pumilus): 0.047 µM (≈ 0.0195 µg/mL) | MIC (Streptomyces scabies): 0.0947 µM (≈ 0.0392 µg/mL) | GI50 (HUVEC; Homo sapiens, HUVEC): 1200 nM | antiproliferative activity (in words) (HUVEC; summary of Table 4 (HUVEC, K-562)): moderate | GI50 (K-562): 2660 nM | MIC ([1]; read-out: MIC VRE): 0.97 µM | MIC ([1]; read-out: minimum inhibitory concentration (MIC) VRE): 0.4 µg/mL | MIC (Mycobacterium aurum): 0.12 µM (≈ 0.0497 µg/mL) | MIC (Mycobacterium smegmatis): 0.48 µM (≈ 0.199 µg/mL) | MIC (Mycobacterium fortuitum): 0.12 µM (≈ 0.0497 µg/mL) | MIC (Mycobacterium vaccae): 0.12 µM (≈ 0.0497 µg/mL) | cytotoxic activity (in words) (HeLa): moderate | CC50 [4]: 1690 nM | MIC (Escherichia coli): > 60 µM | antibiotic activity against Escherichia coli (in words) (Escherichia coli; Gram-negative organism): ineffective | MIC ([2]; read-out: MIC MRSA): 0.12 µM | MIC ([2]; read-out: minimum inhibitory concentration (MIC) MRSA): 0.05 µg/mL | MIC (Bs): 0.075 µM (≈ 0.0311 µg/mL)

COCC(O)C(O)C(O)C(=O)c1c(C)cc2c(c1O)C(=O)c1c(O)cc(C)c3c1c-2c(O)c1c(O)c(C(C)=O)ccc13 (stereo not drawn) [Compound 2, clostrubin B]
MIC [3]: 0.542 µM (≈ 0.312 µg/mL) | MIC (Bacillus pumilus): 0.542 µM (≈ 0.312 µg/mL) | MIC (Streptomyces scabies): 0.271 µM (≈ 0.156 µg/mL)
